The target in assay [1] is T1, CB2 receptor (Mus musculus, UniProt P47936).
T1 construct: membranes were prepared from frozen mouse spleen; from tissue; host or cells: mouse spleen
Kind of assay: CB2 receptor binding, [3H]CP-55,940 displacement. The conditions noted are these: mouse spleen membranes. As for the experimental part:
(§1) The treated membranes were subsequently used in the binding assay described below. Approximately 30 μg of membranes were incubated in silanized 96-well microtiter plate with TME containing 0.1% essentially fatty acid-free bovine serum albumin (BSA), 0.8 nM [^3H] CP-55,940, and various concentrations of test materials in a final volume of 200 μL. The assays were incubated for 1 hour at 30° C. and then immediately filtered using Packard Filtermate 196 harvester and Whatman GF/C filterplates and washed with wash buffer (TME) containing 0.5% BSA. Radioactivity was detected using MicroScint 20 scintillation cocktail added directly to the dried filterplates, and the filterplates were counted using a Packard Instruments Top-Count. Nonspecific binding was assessed using 100 nM CP-55,940. Data collected from three independent experiments performed with duplicate determinations was normalized between 100% and 0% specific binding for [^3H] CP-55,940, determined using buffer and 100 nM CP-55,940. The normalized data was analyzed using a 4-parameter nonlinear logistic equation to yield IC50 values.
For the CB2 receptor binding studies, membranes were prepared from frozen mouse spleen essentially according to the procedure of P. R. Dodd et al, A Rapid Method for Preparing Synaptosomes: Comparison with Alternative Procedures, Brain Res., 226, 107-118 (1981) which is incorporated by reference herein. Silanized centrifuge tubes were used throughout to minimize receptor loss due to adsorption. The CB2 binding assay was conducted in the same manner as for the CB1 binding assay. The binding affinities (Ki) were also expressed in nanomoles (nM).

Assay [2] concerns anandamide transporter. Kind of assay: [3H]Anandamide transporter competition assay. The format is cell-based. The conditions noted are these: human CCF-STG1 astrocytoma cells, 10 nM [3H]anandamide. As for the experimental part:
Human CCF-STG1 astrocytoma cells (American Type Culture collection) were grown in RPMI1640 culture medium containing 2 mM L-glutamine, 4.5 g/L glucose, 10 mM HEPES, and 1.0 mM sodium pyruvate, 10% FBS, cultures at 37° C. with 5% CO2. For standard competition assays, confluent cells grown in 24-well plates were rinsed and preincubated for 10 min at 37° C. in assay buffer (Hank's Balanced Salt Solution containing 0.1% DMSO, 10 mM HEPES) plus test compounds (at their final concentrations of 0.01-100 μM). After having discarded the preincubation media, the cells were incubated for 4 min in 0.2 ml assay buffer containing 10 nM [^3H] anandamide (137.6 Ci/mmol, New England Nuclear) plus test compounds. Reactions were stopped by removing the incubation media and rinsing the cells three times with 0.5 ml of ice-cold HBSS buffer containing 0.1% fatty acid-free Bovine Serum Albumin (sigma). Radioactive material in Triton X-100 cell extracts was measured by liquid scintillation counting. A minimum of three independent experiments conducted in six replicates was used to define the concentration needed to produce half-maximal inhibition (IC50) for each compound. IC50 values were obtained by nonlinear regression fitting of the data, using the PRIZM software package. Data are expressed as mean±SEM.

The target of assay [3] is T2, Mag-lipase (Rattus norvegicus, UniProt Q8R431).
T2 construct: supernatant from final spin in the anandamide amidase preparation; from tissue; host or cells: supernatant (soluble fraction) of the anandamide amidase preparation, rat brain by the cited procedure
T2 sequence (Q8R431 1-303): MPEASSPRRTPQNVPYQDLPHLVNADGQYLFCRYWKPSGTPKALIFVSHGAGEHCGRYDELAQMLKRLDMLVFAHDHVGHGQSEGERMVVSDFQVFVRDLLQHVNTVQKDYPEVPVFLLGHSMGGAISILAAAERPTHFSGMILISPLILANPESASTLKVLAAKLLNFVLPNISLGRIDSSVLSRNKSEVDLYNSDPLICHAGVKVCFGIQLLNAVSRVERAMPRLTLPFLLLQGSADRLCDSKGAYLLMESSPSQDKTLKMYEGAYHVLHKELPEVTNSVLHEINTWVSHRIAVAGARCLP
Briefly: Inhibition of MAG-lipase: 2-AG metabolism to arachidonic acid. The assay is classed as biochemical. The conditions noted are these: 30 nmoles compound with 30 nmoles 2-AG, 30 μg enzyme, 300 μL, 20 min. As for the experimental part:
All compound solutions were made to a concentration of 10 mM in DMSO. Three tests were performed on each compound: hydrolysis, to determine the stability of the compound in assay conditions without the enzyme present; metabolism, to determine the stability of the compound with the enzyme present; and inhibition of 2-Arachidonoyl glycerol (native substrate) metabolism to arachidonic acid.
The inhibition of 2-AG metabolism was measured by mixing 30 nmoles of the compound with 30 nmoles 2-AG, and 30 μg enzyme preparation in TME buffer (final volume of 300 μL). Again the reaction mixture was treated in the same manner as described above and the concentrations of 2-AG and AA were calculated using external standards. Percent inhibition was calculated using the following equation: % Inhib.=(AA20-AA0)i/(AA20-AA0)s where (AA20-AA0)i is the amount of arachidonic acid formed over 20 minutes from 2-AG with the inhibitor present and (AA20-AA0)s is the amount of arachidonic acid formed over 20 minutes from 2-AG when the inhibitor is not present. […] The reaction mixtures were treated as described above and the amount of AA formed was calculated. The software package GraphPad Prism was utilized to calculate IC50 and Ki. HPLC Conditions:
Chromatographic separation was achieved using an Ultrasphere ODS Pre-column (4.6×45 mm) from Beckman. Hardware consisted of a Waters Millennium HPLC system with a 20 μL injection loop. The mobile phase consisted of 8.5% o-phosphoric acid:acetonitrile (3:7), run isocratically at a rate of 1 mL/min and detection at 204 nm. The total run time was 8 minutes with 2-AG eluting at 3.0 minutes and AA at 6.0 minutes.

For assay [4], the target named is T3, CB1 cannabinoid receptor (Rattus norvegicus, UniProt P20272).
T3 construct: membranes were prepared from rat forebrain membranes; from tissue; host or cells: rat forebrain
Briefly: CB1 receptor binding, [3H]CP-55,940 displacement. The conditions noted are these: rat forebrain membranes. As for the experimental part:
Some inventive analogs were tested for CB2 receptor binding affinity and for CB1 receptor affinity (to determine selectivity). […] The lower the Ki value, the higher the binding affinity. […] For the CB1 receptor binding studies, membranes were prepared from rat forebrain membranes according to the procedure of P. R. Dodd et al, A Rapid Method for Preparing Synaptosomes: Comparison with Alternative Procedures, Brain Res., 107-118 (1981). The binding of the novel analogues to the CB1 cannabinoid receptor was assessed as described in W. A. Devane et al, Determination and Characterization of a Cannabinoid Receptor in a Rat Brain, Mol. Pharmacol., 34, 605-613 (1988) and A. Charalambous et al, 5′-azido Δ^8-THC: A Novel Photoaffinity Label for the Cannabinoid Receptor, J. Med. Chem., 35, 3076-3079 (1992) with the following changes. The above articles are incorporated by reference herein.
Membranes, previously frozen at −80° C., were thawed on ice. To the stirred suspension was added three volumes of TME (25 mM Tris-HCl buffer, 5 mM MgCl2 and 1 mM EDTA) at a pH 7.4. The suspension was incubated at 4° C. for 30 min. At the end of the incubation, the membranes were pelleted and washed three times with TME.
as §1

The mark [5] stands for this setting: with PMSF (second value of cell), read-out: Ki CB1 (nM) (o/w PMSFQ).
[6] abbreviates: without PMSF (first value of cell), read-out: Ki CB1 (nM) (o/w PMSFQ).
The mark [7] stands for this setting: with PMSF (second value of cell), read-out: Ki CB1 (nM) (o/w PMSF).
The mark [8] stands for this setting: without PMSF (first value of cell), read-out: Ki CB1 (nM) (o/w PMSF).

Read-outs that look alike come from different tables or passages of the source.

One may read the IC50 as the concentration needed to halve the response being measured. The term inhibition denotes the drop in the measured response relative to a control, in per cent.

T3 sequence (P20272 whole entry): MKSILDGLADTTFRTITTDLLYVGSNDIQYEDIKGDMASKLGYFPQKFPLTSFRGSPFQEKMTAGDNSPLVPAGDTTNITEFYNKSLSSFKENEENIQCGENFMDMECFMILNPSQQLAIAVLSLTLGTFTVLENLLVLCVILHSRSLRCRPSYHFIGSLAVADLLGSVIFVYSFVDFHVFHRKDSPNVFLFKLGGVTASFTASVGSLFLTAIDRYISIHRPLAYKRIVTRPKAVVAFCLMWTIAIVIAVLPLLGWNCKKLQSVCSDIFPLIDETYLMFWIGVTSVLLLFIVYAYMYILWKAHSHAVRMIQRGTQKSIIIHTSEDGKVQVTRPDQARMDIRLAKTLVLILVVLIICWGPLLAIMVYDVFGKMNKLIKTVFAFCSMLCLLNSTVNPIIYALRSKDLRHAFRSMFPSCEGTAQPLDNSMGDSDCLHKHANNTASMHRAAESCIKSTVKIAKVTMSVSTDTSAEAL
T1 sequence (P47936 whole entry): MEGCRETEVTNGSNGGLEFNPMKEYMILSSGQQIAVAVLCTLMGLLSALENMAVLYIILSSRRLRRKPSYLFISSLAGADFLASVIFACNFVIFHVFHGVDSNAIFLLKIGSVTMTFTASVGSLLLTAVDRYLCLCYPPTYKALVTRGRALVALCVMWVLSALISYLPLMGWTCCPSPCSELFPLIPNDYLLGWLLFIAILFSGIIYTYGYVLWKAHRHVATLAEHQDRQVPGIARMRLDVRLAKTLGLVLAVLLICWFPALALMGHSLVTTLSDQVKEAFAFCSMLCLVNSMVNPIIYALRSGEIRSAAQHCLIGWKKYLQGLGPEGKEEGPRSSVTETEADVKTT

With `CCCCCN(C)C/C=C\C/C=C\C/C=C\C/C=C\CCCCNC(=O)c1ccc(O)cc1` [Compound A26], the Ki stood at 2.91 µM in assay [1], 2150 nM in assay [4] (setting [5]) and 4720 nM in assay [4] (setting [6]). Also, the half-inhibitory concentration (IC50) in assay [2] (read-out: IC50 AT inhibition) came out at 5.4 µM. Further, in assay [3], the “Mag-Lipase % Inhibition” value stood at 9.8%.
In the same order, the values of `CCCCCN(C)C/C=C\C/C=C\C/C=C\C/C=C\CCCCNC(=O)c1ccc(O)cc1` [Compound A27] are 2.56 µM, 1620 nM, 2220 nM, 7.1 µM and 4.2%.
As for `CCCCC/C=C\C/C=C\C/C=C\C/C=C\CCCCOC(=O)Nc1cccnc1` [Compound B11], the Ki in assay [1] was 0.185 µM; in assay [4] (setting [7]) it was 96.4 nM; in assay [4] (setting [8]) it was 302 nM. The IC50 in assay [2] (read-out: IC50 (AT inhib.)) stood at 16.1 µM. Moreover, the inhibition at 100 µM in assay [3] turned out to be 16.8%.
`CCCCCCCCC=CCCCCCCCCOC(=O)NCC(C)O` (centres unmarked) [Compound B13]: the values for the Ki in assay [1], in assay [4] (setting [7]) and in assay [4] (setting [8]) were 2.6 µM, 2240 nM and 4750 nM, respectively. Further, the IC50 in assay [2] (read-out: IC50 (AT inhib.)) is 5.92 µM. For the same compound, in assay [3], the “Mag-Lipase % Inhibition” value was 13.1%.

These data come from patent US8202893B2, “Cannabinergic lipid ligands” (University of Connecticut, priority 2004, dated 2012).
